Measurements as given in article PMC6929626, “PET/MRI enables simultaneous in vivo quantification of β-cell mass and function” (Theranostics, 2020).

Legend:
[1] = test system: VDCC; experiment: Manganese-enhanced MRI (T1 maps, R1, estimated [Mn]) of pancreas and insulinomas; format: in vivo, mice; settings: for [Mn]: estimated from (R1post-R1pre)/r1
Method: In brief, mice were fasted for 4-6 hours and anesthetized with 1-2% isoflurane/O2 gas mixture (Vetland, Louisville, KY, USA) before the in vivo measurements. A tail vein catheter was initially placed for the co-injection of 50 µL of tracer solution (0.12 MBq/g bodyweight) and 50 µL of MnCl2:Bicine solution (75 µmol/kg body weight). The animals were placed in supine position on the bed in order to attenuate the motion artifacts rising from the respiratory movements. Thus, [^64Cu]Ex4 and MnCl2 solution were co-injected i.v. as a bolus a few seconds after the beginning of dynamic PET measurements. An additional i.v. injection of glucose solution (1.5 g/kg) was performed five minutes after the PET tracer and MR contrast agent injection to enhance the metabolic uptake of Mn by the pancreas. PET quantification was performed by 20-min static frames acquired simultaneously with 7T MRI scanner using a compatible PET-insert or consecutively using an Inveon-PET scanner (Inveon Dedicated PET, Siemens Healthineers, Knoxville, TN, USA). MR images were acquired using a mouse body quadrature volume RF-resonator with an inner diameter of 40 mm (MT0205, Bruker) on a 7 T Preclinical MR scanner (BioSpec 70/30, Bruker BioSpin MRI GmbH, Ettlingen, DE). During the acquisition, we monitored the breathing with an MR-compatible breathing sensor. The body temperature was maintained at 37 °C using a water-based warming pad.
In vivo MR measurement started with the acquisition of a rapid acquisition with relaxation enhancement (RARE) turbo-spin-echo (TSE) sequence with a large field of view to perform whole-body imaging with the following MR parameters: fat suppression module, repetition time (TR)/echo time (TE)=800/30.8 ms, respectively, field of view (FoV)=64×32×23 mm^3, matrix size 256×128, one average, bandwidth (BW)=75 kHz, RARE Factor (RF)=16 and an isotropic resolution of 0.25 mm. Then, we acquired consecutive RF-spoiled and slab selective gradient-echo (GRE) pulse sequences with short TR and keeping at the minimum the TE and using the following MR parameters: TR/TE=10/1.9 ms, FoV=34×34×17 mm^3, matrix size 128×128, two averages, BW=75 kHz, Sharpness=7 and approximatively 3 min of acquisition time per scan. Quantification of T1 was calculated by the acquisition of either two flip angles (4°, 22°), 0.27×0.27 mm^2 of in-plane resolution and 0.53 mm of slice thickness, or three flip angles (4°, 14°, 27°) with an isotropic resolution of 0.27 mm as described in Table 1.
The volume of interest (VOI) for the entire pancreas (Pancreas^Control; Pancreas^RIP1-Tag2) and the detected insulinomas (Insulinomas^RIP1-Tag2) were manually drawn in Inveon Research Workplace (Siemens Heathineers) after co-registration of the PET images. The T1-w images and the T1 maps were as well co-registered and used as anatomical references. The co-registered VOIs were exported and analyzed in MATLAB (R2013b; The MathWorks, Natick, MA, USA) using an in-house script. The percent injected dose per mL (%ID/mL) of the PET tracer was calculated voxel-wise by adjusting the radioactivity units (kBq/mL) for the injected activity and the half-life of ^64Cu (t1/2=12.7 h). On the other hand, the longitudinal relaxation rate (R1=1/T1) was calculated from the respective region drawn on the T1 maps. For the quantification, we considered voxels with R1 values between 0.4 and 10 s^-1. The estimated concentrations of Mn ([Mn]) were also calculated voxel-wise by the subtraction image acquired before and after the injection of MR-contrast agent and using the relaxivity (r1) of MnCl2:Bicine ([Mn]∝∆R1=(R1post-R1pre)/r1), which was calculated separately in a phantom study (Method S1 and Fig. S10). The indexes of [Mn] after 24 h were calculated using the overall mean of R1 obtained before and after 24 h, due to the different anatomical localization of the pancreata. […]

[2] = LA-ICP-MS imaging of ^55Mn in pancreas sections, cross-validated with autoradiography; format: in vivo, mice
Method: The whole pancreata from control and transgenic RIP1-Tag2 mice were isolated after cervical dislocation under anesthesia. Then, the whole pancreata were embedded in O.C.T. (optimum cutting temperature) embedding compound (Sakura, Zoeterwonde, NL) and snap frozen at -20 °C. Subsequently, serial 20 µm cryosections were obtained using a Cryostat (Leica 1850, Leica GmbH, Wetzlar, DE) and exposed to a 35×43 cm Storage Phosphor Screen (445SI, Molecular Dynamics, Sunnyvale, CA, USA) at room temperature for 24 h and 48 h for animals sacrificed at 1 h and 24 h, respectively. Scanning of the phosphor imaging plate was performed using a Storm 840 scanner (STORM 840, Amersham Biosciences, Amersham, UK) with a spatial resolution of 50x50 µm^2 and analyzed using ImageJ software (US NIH, Bethesda, Maryland, USA). Thus, we calculated the main effect of the PET tracer uptake, expressed as islet-to-exocrine ratio to estimate the islet diameter identified as single spots throughout the pancreas sections in both groups (Fig. S3).
The autoradiography slides were scanned line-by-line at 60 µm laser spot size using an NWR 213 laser ablation system (New Wave Research, Fremont, CA, USA). […] The isotopes ^44Ca, ^65Cu, ^64Zn,^ 55Mn, ^13C were monitored among the exocrine and the endocrine tissue in the healthy and insulinoma mice. […]

**Q.** For MnCl2:Bicine, which “[Mn]” value ([1]; Table S1, VOI Insulinomas 10-wk, 1 h, n=3/4) is on record?
**A.** 1.4 ± 0.2 mM×10^-1

**Q.** What about the “log10(R1)×10^1” value ([1]; Table S1, VOI Insulinomas 10-wk, 1 h, group mean ± SD of medians, n=3/4) of the same substance?
**A.** 1.8 ± 0.2

**Q.** And the “[Mn]” value ([1]; Table S1, VOI Insulinomas 10-wk, 24 h, n=3/3)?
**A.** 0.8 ± 0.2 mM×10^-1

**Q.** And the “log10(R1)×10^1” value ([1]; Table S1, VOI Insulinomas 10-wk, 24 h, group mean ± SD of medians, n=3/3)?
**A.** 0.5 ± 0.5

**Q.** What about the “[Mn]” value ([1]; Table S1, VOI Insulinomas 13-wk, 1 h, n=3/4) of the same substance?
**A.** 0.9 ± 0.4 mM×10^-1

**Q.** What about the “log10(R1)×10^1” value ([1]; Table S1, VOI Insulinomas 13-wk, 1 h, group mean ± SD of medians, n=3/4) of the same substance?
**A.** 0.6 ± 1.1

**Q.** And the “[Mn]” value ([1]; Table S1, VOI Insulinomas 13-wk, 24 h, n=3/3)?
**A.** 0.3 ± 0.4 mM×10^-1

**Q.** What about the “log10(R1)×10^1” value ([1]; Table S1, VOI Insulinomas 13-wk, 24 h, group mean ± SD of medians, n=3/3) of the same substance?
**A.** 1.6 ± 0.2

**Q.** What about the “[Mn]” value ([1]; Table S1, VOI Pancreas Control, 1 h, group mean ± SD, n=3/4) of the same substance?
**A.** 1.8 ± 0.2 mM×10^-1

**Q.** And the “log10(R1)×10^1” value ([1]; Table S1, VOI Pancreas Control, 1 h, group mean ± SD of medians, n=3/4)?
**A.** 2.7 ± 0.3

**Q.** And the “[Mn]” value ([1]; Table S1, VOI Pancreas Control, 24 h, group mean ± SD, n=3/3)?
**A.** 0.6 ± 0.2 mM×10^-1

**Q.** And the “log10(R1)×10^1” value ([1]; Table S1, VOI Pancreas Control, 24 h, group mean ± SD of medians, n=3/3)?
**A.** 1.0 ± 0.8

**Q.** What about the “[Mn]” value ([1]; Table S1, VOI Pancreas RIP1-Tag2 10-wk, 1 h, n=3/4) of the same substance?
**A.** 1.2 ± 0.2 mM×10^-1

**Q.** What about the “log10(R1)×10^1” value ([1]; Table S1, VOI Pancreas RIP1-Tag2 10-wk, 1 h, group mean ± SD of medians, n=3/4) of the same substance?
**A.** 1.5 ± 0.6

**Q.** And the “[Mn]” value ([1]; Table S1, VOI Pancreas RIP1-Tag2 10-wk, 24 h, n=3/3)?
**A.** 0.4 ± 0.1 mM×10^-1

**Q.** And the “log10(R1)×10^1” value ([1]; Table S1, VOI Pancreas RIP1-Tag2 10-wk, 24 h, group mean ± SD of medians, n=3/3)?
**A.** 0.0 ± 0.2

**Q.** What about the “[Mn]” value ([1]; Table S1, VOI Pancreas RIP1-Tag2 13-wk, 1 h, n=3/4) of the same substance?
**A.** 1.0 ± 0.5 mM×10^-1

**Q.** And the “log10(R1)×10^1” value ([1]; Table S1, VOI Pancreas RIP1-Tag2 13-wk, 1 h, group mean ± SD of medians, n=3/4)?
**A.** 0.9 ± 1.6

**Q.** And the “[Mn]” value ([1]; Table S1, VOI Pancreas RIP1-Tag2 13-wk, 24 h, n=3/3)?
**A.** 0.5 ± 0.4 mM×10^-1

**Q.** And the “log10(R1)×10^1” value ([1]; Table S1, VOI Pancreas RIP1-Tag2 13-wk, 24 h, group mean ± SD of medians, n=3/3)?
**A.** 0.1 ± 0.3

**Q.** What about the “log10(R1)×10^1” value ([1]; VOI Insulinomas RIP1-Tag2 10-15 wk pooled, 1 h after i.v. 75 µmol/kg, mean ± SD) of the same substance?
**A.** 1.2 ± 1.2

**Q.** What about the “log10(R1)×10^1” value ([1]; VOI Insulinomas RIP1-Tag2 10-15 wk pooled, 24 h after i.v. 75 µmol/kg, mean ± SD) of the same substance?
**A.** 0.4 ± 0.5

**Q.** And the “log10(R1)×10^1” value ([1]; VOI Pancreas Control, 1 h after i.v. 75 µmol/kg, 7 T, three flip angles, R1=1/T1, mean ± SD, n=3)?
**A.** 3.0 ± 0.7

**Q.** And the “log10(R1)×10^1” value ([1]; VOI Pancreas Control, 24 h after i.v. 75 µmol/kg, 7 T, three flip angles, mean ± SD, n=6)?
**A.** 0.1 ± 0.6

**Q.** What about the “log10(R1)×10^1” value ([1]; VOI Pancreas RIP1-Tag2 10-15 wk pooled, 1 h after i.v. 75 µmol/kg, mean ± SD, n=7) of the same substance?
**A.** 1.2 ± 1.1

**Q.** What about the “log10(R1)×10^1” value ([1]; VOI Pancreas RIP1-Tag2 10-15 wk pooled, 24 h after i.v. 75 µmol/kg, mean ± SD, n=13) of the same substance?
**A.** -0.1 ± 0.4

**Q.** What about the “[Mn] estimated in vivo, times lower in detected insulinomas than in pancreas of control mice” value ([1]; early time points (1 h)) of the same substance?
**A.** ~2 times

**Q.** And the “spatial distribution of exogenous ^55Mn in pancreas sections” value ([2]; 1 h after injection, merged elemental images of ^55Mn, ^44Ca, ^64Zn, control and 13-wk RIP1-Tag2 mice)?
**A.** higher concentration of ^55Mn in the exocrine pancreas

**Q.** And the “spatial distribution of exogenous ^55Mn in pancreas sections” value ([2]; 24 h after injection, control and RIP1-Tag2 mice)?
**A.** only low levels of ^55Mn were found in the exocrine pancreas
